According to the NIST ThermoML archive (doi:10.1021/acs.jced.9b00710):
Numbers after ± are expanded uncertainties.

Key:
[1] = Crystal; DSC
[2] = Molar enthalpy of transition or fusion; details: Crystal; DSC
[3] = refractive index (Na D-line) (dimensionless); details: 293.15 K; 101.33 kPa; Liquid; Standard Abbe refractometry

Triple point temperature [1] [K] | Molar enthalpy of transition or fusion [2] [kcal/mol] | refractive index [3] | SMILES
395.63 ± 1.2 | 4.25 ± 0.43 |  | O=C(O)c1ccccc1 [benzoic acid]
 |  | 1.3989 ± 0.002 | CCCCO [butan-1-ol]
 |  | 1.4235 ± 0.002 | C1CCCCC1 [cyclohexane]
 |  | 1.4789 ± 0.002 | C[S+](C)[O-] [dimethyl sulfoxide]
 |  | 1.4309 ± 0.002 | CN(C)C=O [dimethylformamide]
 |  | 1.361 ± 0.002 | CCO [ethanol]
468.1 ± 1.2 | 8.7 ± 0.884 |  | Cc1nnc(C(C)C)n1[C@@H]1C[C@H]2CC[C@@H](C1)N2CC[C@H](NC(=O)C1CCC(F)(F)CC1)c1ccccc1 [maraviroc]
 |  | 1.3893 ± 0.002 | CCCC(C)=O [pentan-2-one]
 |  | 1.3854 ± 0.002 | CCCO [propan-1-ol]
432.4 ± 1.2 | 9.04 ± 0.932 |  | O=C(Nc1c(Cl)cncc1Cl)c1ccc(OC(F)F)c(OCC2CC2)c1 [roflumilast]
 |  | 1.3334 ± 0.002 | O [water]

SMILES | Triple point temperature [1] [K] | Molar enthalpy of transition or fusion [2] [kcal/mol] | refractive index [3]
CCC(C)=O [butanone] |  |  | 1.3787 ± 0.002
